Data from patent US10150760B2, “Compounds for use in preparing heterocyclic triazole agonists of the APJ receptor” (AMGEN INC., priority 2016, dated 2018).

What follows are molecules tested against human APJ receptor (Homo sapiens (Human), UniProt P35414) (assay: [35S]GTPγS binding assay on membranes from CHO cells stably expressing human APJ receptor). Details: read-out: Activity hAPJ SPA EC50 IP.
Assay type: biochemical
Summary of the method: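 Agonist-driven [35S]GTPγS (0.2 nM) binding was measured over 90 min at room temperature on human APJ-expressing CHO membranes with bead capture, in buffer containing 3 μM GDP, 200 mM NaCl and 5 mM MgCl2 (pH 7.5). Excess unlabelled GTPγS (100 μM) gave nonspecific signal; EC50 from non-linear fits.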

human APJ receptor, sequence (P35414 whole entry): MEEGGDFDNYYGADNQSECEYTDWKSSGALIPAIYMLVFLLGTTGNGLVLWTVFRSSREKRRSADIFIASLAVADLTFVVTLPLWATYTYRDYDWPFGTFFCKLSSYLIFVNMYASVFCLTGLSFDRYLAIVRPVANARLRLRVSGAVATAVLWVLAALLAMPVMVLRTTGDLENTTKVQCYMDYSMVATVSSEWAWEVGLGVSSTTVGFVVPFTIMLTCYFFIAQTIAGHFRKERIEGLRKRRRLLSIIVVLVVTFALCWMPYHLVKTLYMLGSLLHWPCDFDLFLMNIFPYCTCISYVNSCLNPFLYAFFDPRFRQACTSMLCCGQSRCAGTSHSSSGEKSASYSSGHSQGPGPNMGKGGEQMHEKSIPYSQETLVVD

| Molecule | EC50 |
| --- | --- |
| CO[C@H](c1ncc(Cl)cn1)[C@H](C)S(=O)(=O)Nc1nnc([C@@H]2COCCO2)n1C1(C)CC1 (single isomer, unassigned) [Example 271.0, (1R,2S)-N-(5-((R)-1,4-dioxan-2-yl)-4-(1-methylcyclopropyl)-4H-1,2,4-triazol-3-yl)-1-(5-chloropyrimidin-2-yl)-1-methoxypropane-2-sulfonamide or (1R,2S)-N-(5-((S)-1,4-dioxan-2-yl)-4-(1-methylcyclopropyl)-4H-1,2,4-triazol-3-yl)-1-(5-chloropyrimidin-2-yl)-1-methoxypropane-2-sulfonamide] | 140 nM |
| COc1cccc(OC)c1-n1c(NS(=O)(=O)[C@@H](C)[C@@H](OC(C)C)c2ncc(C)cn2)nnc1[C@@H]1COC(C)(C)C1 (single isomer, unassigned) [Example 412.0, (1S,2S)-N-(4-(2,6-dimethoxyphenyl)-5-((3R)-5,5-dimethyltetrahydro-3-furanyl)-4H-1,2,4-triazol-3-yl)-1-(5-methyl-2-pyrimidinyl)-1-(2-propanyloxy)-2-propanesulfonamide or (1S,2S)-N-(4-(2,6-dimethoxyphenyl)-5-((3S)-5,5-dimethyltetrahydro-3-furanyl)-4H-1,2,4-triazol-3-yl)-1-(5-methyl-2-pyrimidinyl)-1-(2-propanyloxy)-2-propanesulfonamide] | 40 nM |
| COc1cccc(OC)c1-n1c(NS(=O)(=O)[C@@H](C)[C@@H](OC(C)C)c2ccc(C)cn2)nnc1[C@H]1CCOC1 (single isomer, unassigned) [Example 408.0, (1S,2S)-N-(4-(2,6-dimethoxyphenyl)-5-((3R)-tetrahydro-3-furanyl)-4H-1,2,4-triazol-3-yl)-1-(5-methyl-2-pyridinyl)-1-(2-propanyloxy)-2-propanesulfonamide or (1S,2S)-N-(4-(2,6-dimethoxyphenyl)-5-((3S)-tetrahydro-3-furanyl)-4H-1,2,4-triazol-3-yl)-1-(5-methyl-2-pyridinyl)-1-(2-propanyloxy)-2-propanesulfonamide] | 64 nM |
| CO[C@H](c1ncc(Cl)cn1)[C@H](C)S(=O)(=O)Nc1nnc([C@@H]2CCCO2)n1-c1ccccc1C [Example 242.0, (1R,2S)-1-(5-chloro-2-pyrimidinyl)-1-methoxy-N-(4-(2-methylphenyl)-5-((2S)-tetrahydro-2-furanyl)-4H-1,2,4-triazol-3-yl)-2-propanesulfonamide] | 8.7 nM |
| COCC(COC)n1c(NS(=O)(=O)[C@@H](C)[C@@H](OC(C)C)c2ncc(Cl)cn2)nnc1[C@@H]1COCCO1 (single isomer, unassigned) [Example 356.0, (1S,2S)-1-(5-chloro-2-pyrimidinyl)-N-(4-(1,3-dimethoxy-2-propanyl)-5-((2R)-1,4-dioxan-2-yl)-4H-1,2,4-triazol-3-yl)-1-(2-propanyloxy)-2-propanesulfonamide or (1S,2S)-1-(5-chloro-2-pyrimidinyl)-N-(4-(1,3-dimethoxy-2-propanyl)-5-((2S)-1,4-dioxan-2-yl)-4H-1,2,4-triazol-3-yl)-1-(2-propanyloxy)-2-propanesulfonamide] | 26 nM |
| COc1cccc(OC)c1-n1c(NS(=O)(=O)[C@@H](C)[C@H](C)c2ncc(C)cn2)nnc1[C@H]1CCCCO1 (single isomer, unassigned) [Example 85.0, (2S,3R)-N-(4-(2,6-dimethoxyphenyl)-5-((S)-tetrahydro-2H-pyran-2-yl)-4H-1,2,4-triazol-3-yl)-3-(5-methylpyrimidin-2-yl)butane-2-sulfonamide or (2S,3R)-N-(4-(2,6-dimethoxyphenyl)-5-((R)-tetrahydro-2H-pyran-2-yl)-4H-1,2,4-triazol-3-yl)-3-(5-methylpyrimidin-2-yl)butane-2-sulfonamide] | 9.6 nM |
| (1S,2S)-N-(4-(1,3-dimethoxy-2-propanyl)-5-((2R,5R)-5-methyltetrahydro-2-furanyl)-4H-1,2,4-triazol-3-yl)-1-(5-methyl-2-pyridinyl)-1-(2-propanyloxy)-2-propanesulfonamide or (1S,2S)-N-(4-(1,3-dimethoxy-2-propanyl)-5-((2S,5S)-5-methyltetrahydro-2-furanyl)-4H-1,2,4-triazol-3-yl)-1-(5-methyl-2-pyridinyl)-1-(2-propanyloxy)-2-propanesulfonamide [Example 366.0] | 680 nM |
| COc1ncnc(OC)c1-n1c(NS(=O)(=O)[C@@H](C)[C@H](C)c2ncc(Cl)cn2)nnc1[C@H]1CCCO1 (single isomer, unassigned) [Example 82.0, (2S,3R)-3-(5-chloropyrimidin-2-yl)-N-(4-(4,6-dimethoxypyrimidin-5-yl)-5-((S)-tetrahydrofuran-2-yl)-4H-1,2,4-triazol-3-yl)butane-2-sulfonamide or (2S,3R)-3-(5-chloropyrimidin-2-yl)-N-(4-(4,6-dimethoxypyrimidin-5-yl)-5-((R)-tetrahydrofuran-2-yl)-4H-1,2,4-triazol-3-yl)butane-2-sulfonamide] | 3 nM |
| COCC1(n2c(NS(=O)(=O)[C@@H](C)[C@H](OC)c3ncc(Cl)cn3)nnc2[C@H]2CCOC2)CC1 (single isomer, unassigned) [Example 340.0, (1R,2S)-1-(5-chloro-2-pyrimidinyl)-1-methoxy-N-(4-(1-(methoxymethyl)cyclopropyl)-5-((3R)-tetrahydro-3-furanyl)-4H-1,2,4-triazol-3-yl)-2-propanesulfonamide or (1R,2S)-1-(5-chloro-2-pyrimidinyl)-1-methoxy-N-(4-(1-(methoxymethyl)cyclopropyl)-5-((3S)-tetrahydro-3-furanyl)-4H-1,2,4-triazol-3-yl)-2-propanesulfonamide] | 150 nM |
| COc1cccc(OC)c1-n1c(NS(=O)(=O)[C@@H](C)[C@H](C)c2ncc(Cl)cn2)nnc1[C@@H]1CCO[C@@H]1C (single isomer, unassigned) [Example 118.0, (2S,3R)-3-(5-chloropyrimidin-2-yl)-N-(4-(2,6-dimethoxyphenyl)-5-((2R,3S)-2-methyltetrahydrofuran-3-yl)-4H-1,2,4-triazol-3-yl)butane-2-sulfonamide or (2S,3R)-3-(5-chloropyrimidin-2-yl)-N-(4-(2,6-dimethoxyphenyl)-5-((2S,3R)-2-methyltetrahydrofuran-3-yl)-4H-1,2,4-triazol-3-yl)butane-2-sulfonamide] | 270 nM |
| COCC1(n2c(NS(=O)(=O)[C@@H](C)[C@H](OC)c3ncc(Cl)cn3)nnc2[C@H]2CCOC2)CC1 (single isomer, unassigned) [Example 339.0, (1R,2S)-1-(5-chloro-2-pyrimidinyl)-1-methoxy-N-(4-(1-(methoxymethyl)cyclopropyl)-5-((3R)-tetrahydro-3-furanyl)-4H-1,2,4-triazol-3-yl)-2-propanesulfonamide or (1R,2S)-1-(5-chloro-2-pyrimidinyl)-1-methoxy-N-(4-(1-(methoxymethyl)cyclopropyl)-5-((3S)-tetrahydro-3-furanyl)-4H-1,2,4-triazol-3-yl)-2-propanesulfonamide] | 1440 nM |
| (2S,3R)-N-(4-(1,3-dimethoxy-2-propanyl)-5-((2R,5R)-5-methyltetrahydro-2-furanyl)-4H-1,2,4-triazol-3-yl)-3-(5-methoxy-2-pyrimidinyl)-2-butanesulfonamide or (2S,3R)-N-(4-(1,3-dimethoxy-2-propanyl)-5-((2S,5S)-5-methyltetrahydro-2-furanyl)-4H-1,2,4-triazol-3-yl)-3-(5-methoxy-2-pyrimidinyl)-2-butanesulfonamide [Example 370.0] | 620 nM |
